The values below come from PubChem BioAssay (NCI).

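All cell lines were grown in 96-well plates and treated with compound for 48 hours. GI50 = concentration required for 50% inhibition of growth. TGI: concentration producing complete growth inhibition.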 Some results are limits rather than exact numbers.

Among the test systems are 786-0 renal; CAKI-1 renal; COLO 205 colon; EKVX NSCLC; LOX IMVI melanoma; RPMI-8226 leukemia; SF-268 CNS; SF-295 CNS; SR leukemia; U251 CNS.
Common to all, as to experiment: NCI anticancer screen, dose series, 48 h

Regarding `COC(=O)C1=NC(=S)NC(c2ccccc2)C1c1nc2ccccc2o1` (stereo not given), the TGI in the test on 786-0 renal, in the test on CAKI-1 renal, with COLO 205 colon, in the test on EKVX NSCLC, in the test with LOX IMVI melanoma and in the test on RPMI-8226 leukemia was greater than 50 µM in each case. For the same compound, the TGI in the test on SF-268 CNS, with SF-295 CNS, with SR leukemia and in the test with U251 CNS was greater than 50 µM in each case.

On to `O=[N+]([O-])c1cccc(/C=N/Nc2ccc3ccccc3n2)c1O`, for which the TGI in the test on 786-0 renal came out at 12.7 µM; in the test on CAKI-1 renal it was 16.5 µM; in the test with COLO 205 colon, 9.48 µM; in the test on EKVX NSCLC, 39.1 µM; in the test on LOX IMVI melanoma, 12.7 µM; in the test on RPMI-8226 leukemia, 24.3 µM. In addition, the TGI in the test with SF-268 CNS came to 15.3 µM; with SF-295 CNS, 14.2 µM; in the test with SR leukemia, 21.4 µM; with U251 CNS, 16.4 µM.

In the case of `CC(C)=C[C@@H]1C[C@H](C)[C@H]2CC[C@H](C)c3c(O)c(OC4OC(C)C(O)C(O)C4O)c(C)c1c32` (stereo not given in full), the GI50 in the test with 786-0 renal was 17.8 µM; in the test on CAKI-1 renal, 14.5 µM; with COLO 205 colon, 14.4 µM; in the test on EKVX NSCLC, 19.3 µM; with LOX IMVI melanoma, 11.8 µM; in the test with RPMI-8226 leukemia, 12.5 µM. Further, the GI50 in the test with SF-268 CNS was 16 µM; in the test with SF-295 CNS it was 15.9 µM; in the test on SR leukemia it was 2.59 µM; in the test on U251 CNS it was 14.7 µM. Also, the TGI is 33 µM in the test on 786-0 renal; 28.7 µM with CAKI-1 renal; 27.9 µM with COLO 205 colon; 34.2 µM in the test with EKVX NSCLC; 24.4 µM with LOX IMVI melanoma; 27.6 µM in the test with RPMI-8226 leukemia. Also, the TGI with SF-268 CNS worked out at 31.3 µM; in the test on SF-295 CNS, 30.9 µM; in the test with SR leukemia it was 10.4 µM; in the test with U251 CNS, 27.8 µM.

Consider `O=c1cc(-c2ccccc2)oc2ccc(Cl)cc12`, for which the TGI in the test with 786-0 renal was greater than 87.8 µM; in the test on CAKI-1 renal, greater than 90.4 µM; with COLO 205 colon it was greater than 85.7 µM; in the test with EKVX NSCLC, greater than 97 µM; in the test with LOX IMVI melanoma it was greater than 80.1 µM; in the test with RPMI-8226 leukemia, greater than 100 µM. In addition, the TGI in the test on SF-268 CNS is greater than 85.3 µM; in the test with SF-295 CNS, 99.1 µM; in the test with SR leukemia it was greater than 46.4 µM; with U251 CNS it was greater than 91.7 µM.

For `Cc1cc(NCCCCCCCNc2cc(C)nc3cc(N)ccc23)c2ccc(N)cc2n1`, the TGI in the test with 786-0 renal is greater than 100 µM; with CAKI-1 renal, greater than 100 µM; in the test on COLO 205 colon, 29.3 µM; in the test with EKVX NSCLC, greater than 100 µM; with LOX IMVI melanoma, 45.4 µM; in the test with RPMI-8226 leukemia, greater than 100 µM. The TGI with SF-268 CNS is greater than 100 µM; with SF-295 CNS, greater than 100 µM; in the test with SR leukemia, 66.8 µM; in the test on U251 CNS it was greater than 100 µM.

Regarding `COC1C(OC(=O)c2ccc(C)[nH]2)C(O)C(Oc2ccc3c(O)c(NC(=O)c4ccc(O)c(CC=C(C)C)c4)c(=O)oc3c2Cl)OC1(C)C` (stereo not given), the TGI with 786-0 renal amounted to 31.9 µM; in the test on CAKI-1 renal, 36.2 µM; in the test with COLO 205 colon it was 52.8 µM; with EKVX NSCLC it was 61.9 µM; with LOX IMVI melanoma, 38.4 µM; with RPMI-8226 leukemia, 30.4 µM. The TGI in the test on SF-268 CNS stood at 57.4 µM; in the test with SF-295 CNS it was 43.4 µM; with SR leukemia, 56.9 µM; with U251 CNS, 26.8 µM.

As for `Cc1c(Cl)ccc2c1NC(=O)C2(O)CC(=O)c1ccc(Cl)cc1` (stereo not given), the TGI is greater than 100 µM in the test on 786-0 renal; greater than 100 µM in the test on CAKI-1 renal; greater than 64.9 µM with COLO 205 colon; greater than 100 µM in the test on EKVX NSCLC; greater than 46.3 µM with LOX IMVI melanoma; greater than 84.3 µM in the test with RPMI-8226 leukemia. For the same compound, the TGI in the test with SF-268 CNS was greater than 100 µM; in the test on SF-295 CNS it was greater than 58.3 µM; in the test with SR leukemia, greater than 57.1 µM; with U251 CNS, greater than 100 µM.

Consider `Cc1cc(NC(=O)NCc2ccc(N3C(N)=NC(N)=NC3(C)C)cc2)ccc1S(=O)(=O)F`, for which the GI50 is 5.21 µM in the test on 786-0 renal; greater than 49.3 µM in the test with CAKI-1 renal; 2.77 µM with COLO 205 colon; 13.8 µM in the test on EKVX NSCLC; 0.824 µM in the test on LOX IMVI melanoma; 4.55 µM in the test with RPMI-8226 leukemia. The GI50 in the test on SF-268 CNS is 0.682 µM; in the test with SF-295 CNS, 1.57 µM; in the test on SR leukemia, 0.502 µM; with U251 CNS, 0.832 µM. Moreover, the TGI with 786-0 renal, in the test on CAKI-1 renal, with COLO 205 colon, in the test with EKVX NSCLC, with LOX IMVI melanoma and in the test with RPMI-8226 leukemia was greater than 100 µM in each case. Moreover, the TGI in the test on SF-268 CNS is greater than 88 µM; in the test with SF-295 CNS, greater than 100 µM; in the test with SR leukemia, greater than 43.5 µM; in the test with U251 CNS it was greater than 100 µM.

For the compound `CNC(=O)CCN1CCN(CC/C=C2\c3ccccc3Sc3ccc(Cl)cc32)CC1`, the GI50 is 12.1 µM with 786-0 renal; 3.42 µM with CAKI-1 renal; 2.48 µM with COLO 205 colon; 14.5 µM in the test with EKVX NSCLC; 5.15 µM in the test with LOX IMVI melanoma; 3.65 µM with RPMI-8226 leukemia. The GI50 with SF-268 CNS was 9.83 µM; with SF-295 CNS it was 1.84 µM; in the test with SR leukemia it was 4.19 µM; with U251 CNS, 7.22 µM. Besides, the TGI in the test on 786-0 renal is 27.4 µM; in the test with CAKI-1 renal, 19.7 µM; in the test on COLO 205 colon, 6 µM; in the test on EKVX NSCLC, 30.6 µM; in the test with LOX IMVI melanoma it was 18.9 µM; in the test on RPMI-8226 leukemia, 18.2 µM. For the same compound, the TGI in the test on SF-268 CNS was determined as 23.9 µM; in the test on SF-295 CNS, 6.47 µM; in the test on SR leukemia, 18.1 µM; with U251 CNS, 20.7 µM.
